Consider 13 compounds from ChEMBL document CHEMBL1932950, “Inhibitory constituents of Nardostachys chinensis on nitric oxide production in RAW 264.7 macrophages” (Bioorg Med Chem Lett, 2012).

As usually defined, the IC50 is the concentration that inhibits the measured activity by half.

Series [1] concerns RAW264.7. The experiment in a line: Antiinflammatory activity in mouse RAW264.7 cells assessed as inhibition of LPS-induced NO production after 24 hrs by Griess method. Type of series: functional, cell-based. The note with it: for IC50: RAW264.7, 24 h.
Series [2] has as its system RAW264.7. The experiment in a line: Cytotoxicity against mouse RAW264.7 cells by CCK assay. The series is classed as cell-based.

In the case of `C[C@@H]1CC(=O)C=C2[C@H](O)C[C@@H]3[C@@H](C3(C)C)[C@]21C` [DEBILON], the IC50 in series [1] is more than 50 µM. The Activity result in series [2] is given as “Non-toxic”.
As to `C[C@@H]1C[C@H](O)C=C2C(=O)C=C[C@@H](O)[C@]21C` [NARCHINOL B], in series [1], the inhibition result was “Dose-dependent effect” and the half-inhibitory concentration (IC50) came out at 4.6 µM. The Activity result in series [2] is recorded as “Non-toxic”.
As for `COc1cc([C@H]2OC[C@H]3[C@@H]2CO[C@@H]3c2ccc(O)c(OC)c2)ccc1O` [(+)-PINORESINOL], the Activity result in series [2] is on record as “Non-toxic”.
`C[C@@H]1C[C@@H](O)C=C2C(=O)C=C[C@@H](O)[C@]21C` [NARCHINOL C]: in series [1], the inhibition result is “Dose-dependent effect” and the half-maximal inhibitory concentration (IC50) came to 21.6 µM. In addition, in series [2], the Activity entry is on record as “Non-toxic”.
Turning to `C[C@H]1[C@H](C)CC[C@]2(C(=O)O)CC[C@]3(C)C(=CC[C@@H]4[C@@]5(C)CC[C@H](O)C(C)(C)[C@@H]5CC[C@]43C)[C@H]12` [URSOLIC ACID], the concentration for half-maximal inhibition (IC50) in series [1] was more than 50 µM. Also, the Activity result in series [2] is given as “Non-toxic”.
In the case of `COc1ccc(/C=C/C(=O)O)cc1O` [ISOFERULIC ACID], the IC50 in series [1] was more than 50 µM. The Activity result in series [2] is recorded as “Non-toxic”.
The corresponding values for `COc1cc(C2OC2CO)ccc1O` (centres undefined) [EPOXYCONIFERYL ALCOHOL] are more than 50 µM and “Non-toxic”.
Turning to `COc1cc([C@@H]2OC[C@@H]3[C@H]2CO[C@H]3c2ccc(O)c(OC)c2)ccc1O` [(+)-PINORESINOL], in series [1], the IC50 amounted to 33.5 µM.
For `C[C@@H]1CCC=C2C(=O)C=C[C@@H](O)[C@]21C`, in series [1], the inhibition entry was “Dose-dependent effect” and the half-maximal inhibitory concentration (IC50) was determined as 8.4 µM. Besides, the Activity entry in series [2] was “Non-toxic”.
With `C[C@@H]1CCC=C2C(=O)CC(=O)C[C@]21C`, the IC50 in series [1] was more than 50 µM. The Activity entry in series [2] is “Non-toxic”.
The corresponding values for `O=C(O)/C=C/c1ccc(O)cc1` [COUMARIC ACID] are more than 50 µM and “Non-toxic”.
Consider `C[C@@H]1C[C@@H](O)C=C2C(=O)C[C@H]3OOC(C)(C)[C@H]3[C@]21C` [KANSHONE B], for which, in series [1], the inhibition result was “Dose-dependent effect” and the IC50 was found to be 11.5 µM. Also, in series [2], the Activity entry is “Non-toxic”.
Taken in the same sequence, the figures for `C[C@@H]1CCC=C2C(=O)C[C@H]3OOC(C)(C)[C@H]3[C@]21C` [NARDOSINONE] were “Dose-dependent effect”, 11.1 µM and “Non-toxic”.
